We go through 10 compounds from ChEMBL document CHEMBL1201862, “PubChem BioAssay data set” (2004).

The source made the active and inactive calls. Some results are limits rather than exact numbers.

The target of one assay is Estrogen receptor beta (Homo sapiens, UniProt Q92731).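 Further: recombinant ER-beta bound to coactivator SRC1 peptide in presence of estradiol agonist; inhibitors block coactivator peptide binding and lower the FRET signal.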
Assay [1] in a line: HIV-1 Vif–A3G interaction blockers – biochemical, TR-FRET, GST-Vif 1-94, biotin-A3G peptide, dose response retest, primary screen (AID 1117319).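 Further: TR-FRET signal of purified GST-Vif binding a biotinylated A3G peptide; inhibitors lower the FRET signal by blocking Vif and A3G binding.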 Format: functional.
In assay [2] the target is T1, Calpain-2 catalytic subunit (Sus scrofa, UniProt P43367).
T1 sequence (P43367 whole entry): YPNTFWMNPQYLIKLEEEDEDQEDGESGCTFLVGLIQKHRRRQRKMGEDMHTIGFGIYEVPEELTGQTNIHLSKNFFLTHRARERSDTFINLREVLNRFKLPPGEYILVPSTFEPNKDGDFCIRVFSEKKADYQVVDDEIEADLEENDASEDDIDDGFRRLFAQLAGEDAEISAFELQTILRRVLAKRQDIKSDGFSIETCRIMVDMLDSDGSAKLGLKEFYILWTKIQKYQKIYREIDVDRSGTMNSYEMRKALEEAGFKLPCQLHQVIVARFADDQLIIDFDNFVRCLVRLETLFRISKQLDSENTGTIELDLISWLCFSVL
Description: m-calpain protease blockers, concentration series – biochemical, fluorogenic peptide substrate, dose response (AID 1420). The class given is functional.

A further assay deals with INS1. Description: INS-1E survival protection against cytokine death – cell-based, luminescence, retest, dose response (AID 449756).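 Further: cell death triggered by IL-1 beta plus TNF-alpha plus IFN-gamma mixture; protective hits raise ATP signal compared with cytokine alone wells.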 Conditions: Rattus norvegicus. Format: functional.
Assay [3] in a line: viability inhibitors of stage V gametocytes – luminescence, dose response (AID 1117278).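 Further: gametocytes exposed to compound for 24 hours.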 The class given is functional, cell-based.
Assay [4] is described as follows: viability loss in human Jurkat cells – cell-based, luminescence, cytotoxicity control for P. falciparum gametocyte viability project, dose response (AID 1117277).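 Further: potency reflects loss of cellular ATP meaning fewer viable cells.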 Format: functional.
Assay [5] has as its target Mitogen-activated protein kinase 10 (Homo sapiens, UniProt P53779). Briefly: Dose response biochemical screening assay for inhibitors of c-Jun N-Terminal Kinase 3 (JNK3). [Related pubchem assays: 746 ].
Assay [6] addresses Induced myeloid leukemia cell differentiation protein Mcl-1 (Homo sapiens, UniProt Q07820). The class given is functional.
In a further assay the target is T2, ORF 73 (Human herpesvirus 8, UniProt O40947).
T2 sequence (O40947 whole entry): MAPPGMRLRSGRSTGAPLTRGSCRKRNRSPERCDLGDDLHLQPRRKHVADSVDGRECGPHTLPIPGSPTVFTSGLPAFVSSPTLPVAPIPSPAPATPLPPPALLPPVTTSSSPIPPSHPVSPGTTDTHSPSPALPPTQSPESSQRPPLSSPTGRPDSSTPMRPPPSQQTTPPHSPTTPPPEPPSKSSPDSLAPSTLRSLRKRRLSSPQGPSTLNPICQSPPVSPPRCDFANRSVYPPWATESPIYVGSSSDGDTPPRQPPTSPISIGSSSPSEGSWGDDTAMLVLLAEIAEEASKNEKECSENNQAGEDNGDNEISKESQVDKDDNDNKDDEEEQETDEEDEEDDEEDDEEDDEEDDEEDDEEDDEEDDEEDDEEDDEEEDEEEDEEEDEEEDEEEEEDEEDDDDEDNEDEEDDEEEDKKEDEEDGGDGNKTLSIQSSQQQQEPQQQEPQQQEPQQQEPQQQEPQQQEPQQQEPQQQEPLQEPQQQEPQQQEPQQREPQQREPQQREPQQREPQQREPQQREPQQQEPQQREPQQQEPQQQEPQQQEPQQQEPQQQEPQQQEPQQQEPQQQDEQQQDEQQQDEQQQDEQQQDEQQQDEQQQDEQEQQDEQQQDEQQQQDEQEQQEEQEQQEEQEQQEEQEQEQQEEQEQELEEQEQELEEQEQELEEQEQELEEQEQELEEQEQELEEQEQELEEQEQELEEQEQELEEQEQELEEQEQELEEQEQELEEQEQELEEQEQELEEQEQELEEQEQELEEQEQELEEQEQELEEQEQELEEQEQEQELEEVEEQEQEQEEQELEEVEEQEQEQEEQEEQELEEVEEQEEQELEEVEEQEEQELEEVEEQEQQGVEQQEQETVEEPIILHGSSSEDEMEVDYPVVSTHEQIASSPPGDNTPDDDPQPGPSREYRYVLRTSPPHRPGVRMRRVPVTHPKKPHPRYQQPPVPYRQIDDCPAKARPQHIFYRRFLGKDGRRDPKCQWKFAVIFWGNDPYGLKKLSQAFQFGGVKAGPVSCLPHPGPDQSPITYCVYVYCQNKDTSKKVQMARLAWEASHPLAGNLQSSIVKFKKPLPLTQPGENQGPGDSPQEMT
Description: KSHV LANA DNA-binding disruption – biochemical, fluorescence polarization, cherry-picked samples, dose response (AID 504725).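 Further: fluorescence polarization of a labeled DNA duplex reporting LANA DNA binding; potency is for inhibitors that block LANA binding to the DNA.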 On the set-up: species or system Human gammaherpesvirus 8. For orientation: In fluorescence polarisation assays a small probe gives low polarisation when free and higher when bound to something large.

Assay [7] concerns the target Eukaryotic translation initiation factor 4E (Mus musculus, UniProt P63073). Briefly: blockers of eIF4G binding by eIF4E – biochemical, TR-FRET, dose response (AID 855).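 Further: potency for disrupting eIF4E binding to eIF4GI seen as loss of FRET.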 Format: functional. On the technique in general: In TR-FRET formats the signal depends on donor and acceptor labels being close together.
The target of assay [8] is T3, Small ubiquitin-related modifier 1 (Homo sapiens, UniProt P63165). Briefly: SUMO1 protein interaction blockers, potency – biochemical, fluorescence polarization, uHTS hits, dose response (AID 624382). Format: functional. Particulars: read-out: IC50_Mean.
T3 sequence (P63165 whole entry): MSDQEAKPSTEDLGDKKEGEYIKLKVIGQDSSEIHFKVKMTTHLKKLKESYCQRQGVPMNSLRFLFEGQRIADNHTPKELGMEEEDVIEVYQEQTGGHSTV
The target in assay [9] is T3, Small ubiquitin-related modifier 1. Briefly: SUMO1 protein-protein binding blockers, potency – biochemical, FRET, dose response (AID 624383). Particulars: read-out: IC50_Mean. The class given is functional.
For assay [10], the target named is T4, Rac GTPase-activating protein 1 (Homo sapiens, UniProt Q9H0H5).
T4 sequence (Q9H0H5 whole entry): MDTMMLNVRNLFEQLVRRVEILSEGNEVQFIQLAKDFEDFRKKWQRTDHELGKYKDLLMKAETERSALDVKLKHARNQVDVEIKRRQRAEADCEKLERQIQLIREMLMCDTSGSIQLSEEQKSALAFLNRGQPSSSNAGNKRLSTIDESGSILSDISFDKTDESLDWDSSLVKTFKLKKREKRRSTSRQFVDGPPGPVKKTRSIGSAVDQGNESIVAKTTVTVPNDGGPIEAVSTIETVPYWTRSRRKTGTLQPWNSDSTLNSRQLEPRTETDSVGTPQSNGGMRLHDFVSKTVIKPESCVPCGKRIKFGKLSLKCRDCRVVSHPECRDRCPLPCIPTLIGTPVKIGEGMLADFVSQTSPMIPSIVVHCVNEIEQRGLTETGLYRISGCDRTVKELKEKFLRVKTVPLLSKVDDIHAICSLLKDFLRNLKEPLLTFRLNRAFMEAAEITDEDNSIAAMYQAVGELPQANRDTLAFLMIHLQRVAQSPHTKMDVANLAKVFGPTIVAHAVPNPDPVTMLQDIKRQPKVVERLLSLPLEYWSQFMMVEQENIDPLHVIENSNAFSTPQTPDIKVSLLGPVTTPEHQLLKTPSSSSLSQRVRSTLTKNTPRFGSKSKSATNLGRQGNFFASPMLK
Description: blockers of MgcRacGAP-driven Rac1 GTP hydrolysis – biochemical, ADP Hunter fluorescence, primary and confirmatory, confirmation (AID 624330). The class given is functional.

The target in assay [11] is T5, Histone-lysine N-methyltransferase NSD2 (Homo sapiens, UniProt O96028).
T5 sequence (O96028 whole entry): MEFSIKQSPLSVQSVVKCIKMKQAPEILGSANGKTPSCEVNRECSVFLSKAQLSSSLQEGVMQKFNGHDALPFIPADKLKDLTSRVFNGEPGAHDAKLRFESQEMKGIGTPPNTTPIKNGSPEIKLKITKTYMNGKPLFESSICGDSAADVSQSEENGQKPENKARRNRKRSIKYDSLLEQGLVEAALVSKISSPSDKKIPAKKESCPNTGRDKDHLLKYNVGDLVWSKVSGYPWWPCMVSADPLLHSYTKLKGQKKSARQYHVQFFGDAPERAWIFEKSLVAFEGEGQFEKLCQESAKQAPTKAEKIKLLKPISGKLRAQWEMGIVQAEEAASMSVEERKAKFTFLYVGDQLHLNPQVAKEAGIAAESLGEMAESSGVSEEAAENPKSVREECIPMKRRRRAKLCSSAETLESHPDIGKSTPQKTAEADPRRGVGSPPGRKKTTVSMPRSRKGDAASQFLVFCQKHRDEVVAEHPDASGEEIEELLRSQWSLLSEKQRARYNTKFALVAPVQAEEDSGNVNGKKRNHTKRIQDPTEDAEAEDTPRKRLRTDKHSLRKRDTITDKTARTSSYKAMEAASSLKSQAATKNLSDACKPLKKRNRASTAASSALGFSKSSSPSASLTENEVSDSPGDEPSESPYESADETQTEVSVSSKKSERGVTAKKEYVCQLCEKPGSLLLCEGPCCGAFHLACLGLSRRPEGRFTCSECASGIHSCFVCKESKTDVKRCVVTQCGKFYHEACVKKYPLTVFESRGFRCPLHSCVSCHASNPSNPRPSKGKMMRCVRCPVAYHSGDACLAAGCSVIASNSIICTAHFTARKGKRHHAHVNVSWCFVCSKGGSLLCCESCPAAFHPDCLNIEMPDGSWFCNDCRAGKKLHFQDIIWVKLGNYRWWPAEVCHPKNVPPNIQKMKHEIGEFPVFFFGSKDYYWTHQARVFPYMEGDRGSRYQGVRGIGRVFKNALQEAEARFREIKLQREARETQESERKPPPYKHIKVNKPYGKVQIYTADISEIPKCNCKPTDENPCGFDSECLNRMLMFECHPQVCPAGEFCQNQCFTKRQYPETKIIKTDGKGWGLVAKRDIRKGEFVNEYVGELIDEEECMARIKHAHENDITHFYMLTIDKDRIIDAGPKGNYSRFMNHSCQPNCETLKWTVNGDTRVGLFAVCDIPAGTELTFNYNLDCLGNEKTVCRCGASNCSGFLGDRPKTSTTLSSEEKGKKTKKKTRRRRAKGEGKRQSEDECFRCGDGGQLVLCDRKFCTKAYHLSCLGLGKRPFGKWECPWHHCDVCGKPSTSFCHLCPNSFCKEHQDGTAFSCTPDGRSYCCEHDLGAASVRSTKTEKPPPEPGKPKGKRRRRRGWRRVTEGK
Format: biochemical.

A short description of assay [12]: viability loss in THP-1 monocytes – THP-1 cells, cytotoxicity control for Vif-APOBEC3G degradation inhibitor project, dose response (AID 1117359). The class given is functional. Particulars: THP-1.
The target in a further assay is Nonstructural protein 1 (Influenza A virus, UniProt Q194T2). Format: functional, Influenza A virus (A/California/07/2009(H1N1)).
Nonstructural protein 1, sequence (Q194T2 whole entry): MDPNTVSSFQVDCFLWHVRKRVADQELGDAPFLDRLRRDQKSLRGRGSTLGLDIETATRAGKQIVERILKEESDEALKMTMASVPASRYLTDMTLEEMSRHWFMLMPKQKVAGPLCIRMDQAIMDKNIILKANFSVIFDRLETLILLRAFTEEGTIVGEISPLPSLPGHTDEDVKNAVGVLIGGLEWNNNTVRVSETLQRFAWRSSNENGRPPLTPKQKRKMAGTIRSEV
For assay [13], the target named is T6, Polyadenylate-binding protein 1 (Homo sapiens, UniProt P11940). Briefly: MLLE binding blockers, Cy5 peptide tracer – biochemical, fluorescence polarization, Cy5-PAM2 peptide, secondary, miRNA deadenylation inhibitor project, dose response (AID 602260). Particulars: read-out: IC50_Mean. Format: functional.
T6 sequence (P11940 whole entry, the tested form may be a part): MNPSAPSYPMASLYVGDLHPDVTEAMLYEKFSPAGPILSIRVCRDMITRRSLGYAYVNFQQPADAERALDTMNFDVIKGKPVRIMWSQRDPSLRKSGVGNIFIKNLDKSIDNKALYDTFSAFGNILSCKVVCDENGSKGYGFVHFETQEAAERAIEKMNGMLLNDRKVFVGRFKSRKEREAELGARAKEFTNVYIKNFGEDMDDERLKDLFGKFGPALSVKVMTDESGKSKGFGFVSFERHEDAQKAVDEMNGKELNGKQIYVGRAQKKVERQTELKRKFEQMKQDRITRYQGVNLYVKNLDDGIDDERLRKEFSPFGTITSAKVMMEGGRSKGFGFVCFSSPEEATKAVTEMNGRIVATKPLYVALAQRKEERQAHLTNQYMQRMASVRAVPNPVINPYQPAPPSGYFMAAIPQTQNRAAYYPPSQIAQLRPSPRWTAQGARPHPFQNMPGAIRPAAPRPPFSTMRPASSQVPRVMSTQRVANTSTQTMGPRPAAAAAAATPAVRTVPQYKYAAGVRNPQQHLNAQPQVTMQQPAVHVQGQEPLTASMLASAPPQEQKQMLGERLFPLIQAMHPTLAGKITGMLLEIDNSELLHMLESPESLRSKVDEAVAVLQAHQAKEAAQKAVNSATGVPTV
Assay [14] concerns the target T6, Polyadenylate-binding protein 1. Description: MLLE domain peptide-binding blockers, IC50 – biochemical, fluorescence polarization, FITC-PAM2 peptide, dose response (AID 602259). Format: functional. Particulars: read-out: IC50_Mean.
Another assay can be described thus: cells. Format: functional.

Estrogen receptor beta, sequence (Q92731 whole entry): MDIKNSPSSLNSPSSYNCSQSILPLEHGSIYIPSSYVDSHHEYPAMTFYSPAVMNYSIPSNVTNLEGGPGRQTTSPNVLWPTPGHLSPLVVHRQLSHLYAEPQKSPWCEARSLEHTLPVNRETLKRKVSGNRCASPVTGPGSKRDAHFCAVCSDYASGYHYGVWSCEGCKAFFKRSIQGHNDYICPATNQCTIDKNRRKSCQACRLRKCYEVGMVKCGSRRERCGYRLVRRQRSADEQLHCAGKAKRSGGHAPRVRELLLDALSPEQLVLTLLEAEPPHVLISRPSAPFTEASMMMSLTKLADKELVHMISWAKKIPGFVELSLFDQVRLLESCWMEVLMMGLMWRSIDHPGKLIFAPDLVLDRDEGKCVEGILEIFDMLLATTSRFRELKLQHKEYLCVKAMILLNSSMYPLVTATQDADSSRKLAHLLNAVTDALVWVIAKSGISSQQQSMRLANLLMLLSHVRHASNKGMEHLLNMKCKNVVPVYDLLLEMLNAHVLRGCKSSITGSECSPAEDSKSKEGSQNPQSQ
Mitogen-activated protein kinase 10, sequence (P53779 whole entry): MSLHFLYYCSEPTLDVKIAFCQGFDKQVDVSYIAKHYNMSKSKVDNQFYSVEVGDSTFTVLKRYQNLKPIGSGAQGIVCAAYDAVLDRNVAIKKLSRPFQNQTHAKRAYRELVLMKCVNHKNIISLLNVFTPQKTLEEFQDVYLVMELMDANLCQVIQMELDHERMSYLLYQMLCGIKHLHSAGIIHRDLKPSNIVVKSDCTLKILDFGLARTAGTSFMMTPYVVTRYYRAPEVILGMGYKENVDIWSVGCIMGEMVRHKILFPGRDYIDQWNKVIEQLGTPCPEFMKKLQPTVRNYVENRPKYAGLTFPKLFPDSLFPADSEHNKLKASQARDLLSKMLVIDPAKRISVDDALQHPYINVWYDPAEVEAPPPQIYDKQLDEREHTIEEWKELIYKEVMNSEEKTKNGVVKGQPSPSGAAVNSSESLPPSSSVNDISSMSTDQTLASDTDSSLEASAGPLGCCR
Eukaryotic translation initiation factor 4E, sequence (P63073 whole entry): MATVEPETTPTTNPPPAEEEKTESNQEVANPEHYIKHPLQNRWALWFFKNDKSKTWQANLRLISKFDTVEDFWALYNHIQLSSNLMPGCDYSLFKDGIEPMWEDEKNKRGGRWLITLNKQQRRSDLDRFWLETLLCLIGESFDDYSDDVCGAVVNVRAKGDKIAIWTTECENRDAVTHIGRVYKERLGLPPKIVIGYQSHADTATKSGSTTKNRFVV
Induced myeloid leukemia cell differentiation protein Mcl-1, sequence (Q07820 whole entry): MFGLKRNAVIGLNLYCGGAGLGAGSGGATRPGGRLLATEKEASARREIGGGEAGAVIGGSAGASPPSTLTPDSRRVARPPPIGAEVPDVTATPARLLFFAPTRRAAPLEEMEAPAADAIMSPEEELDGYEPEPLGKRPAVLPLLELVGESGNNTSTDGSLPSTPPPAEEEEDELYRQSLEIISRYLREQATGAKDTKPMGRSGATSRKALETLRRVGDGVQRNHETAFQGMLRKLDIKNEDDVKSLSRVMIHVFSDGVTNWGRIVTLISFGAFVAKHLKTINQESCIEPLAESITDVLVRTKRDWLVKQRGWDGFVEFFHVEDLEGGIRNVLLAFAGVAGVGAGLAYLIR

Regarding `O=C(Cc1cccs1)Nc1nncs1`, at Estrogen receptor beta, the IC50 was 17 µM (active).
Consider `CCn1c(S)nnc1Cc1c(C)[nH]c2ccccc12`, for which the IC50 in [1] is > 100 µM (active).
One may read the AC50 as the concentration at which the activity in the assay is half-maximal. For the compound `O=C(CN1CC[n+]2c(-c3cccs3)csc21)c1ccc(-c2ccccc2)cc1`, the results for the IC50 in assay [2], in assay [3] and in assay [4] were 22.1 µM (not active), > 109 µM (inactive) and > 83.3 µM (inactive), respectively. The half-maximal activity concentration (AC50) in the assay with INS1 is 2.39 µM (active).
Take `N#Cc1c(SCC(N)=O)nc2c(c1-c1ccncc1)CCCC2`: the IC50 in assay [3] is > 109 µM (inactive); in [4] it was > 83.3 µM (inactive).
Regarding `Cc1ccc(Nc2cc(-n3nc(C)cc3C)ncn2)cc1`, the IC50 in assay [5] is 13.4 µM (not active).
For `Cc1ccc(-c2csc3nc(CN(C)Cc4ccccc4)nc(O)c23)cc1`, the IC50 in assay [3] was > 109 µM (inactive); in assay [4], > 83.2 µM (inactive).
The CC50 is the concentration at which the toxic effect on the cells reaches its halfway point. `CSc1ccc(/C=N/Nc2cccc(C(=O)O)c2)cc1`: the IC50 in [6] was 2.19 µM (active); in [7], 50 µM (inactive); in assay [8] it was > 66.6 µM (inactive); in assay [9], 6.71 µM (active); in [10], 83.5 µM (active). Besides, the AC50 at ORF 73 is 19.8 µM (active); in [11], 2.93 µM (active). Also, in assay [12], the CC50 was > 40 µM (active).
Turning to `CCOC(=O)c1c(N)sc(=S)c2c1CCC2`, the IC50 is > 50 µM (not active) at Estrogen receptor beta, > 100 µM (active) at Nonstructural protein 1, > 66 µM (inactive) in [13] and > 66 µM (inactive) in [14].
Turning to `Cc1ccccc1NC(=O)c1[nH]cnc1C(=O)NCc1ccccc1`, the IC50 in assay [5] was > 31 µM (not active); in “cells”, 10.3 µM (active).
On to `CSc1ccccc1NC(=O)c1ccccc1N(Cc1ccccc1)S(C)(=O)=O`, for which, on Estrogen receptor beta, the IC50 is > 50 µM (not active).
